Data on two molecules can be found in US7744867B2, “PTPase inhibitors and method of using same” (The Cleveland Clinic Foundation, priority 2001, dated 2010).

Experiment [1] has as its system Baf3 cells. Put plainly: IL-3-induced proliferation of Baf3 cells. The experiment is classed as cell-based, murine. As to conditions: at 1,000 μg/ml. The protocol: The murine hematopoietic cell line Baf3 was maintained in RPMI 1640 medium supplemented with 10% fetal calf serum (FCS) and murine IL-3 (20 units/ml) as described previously. Human myeloid cell line TF-1 was maintained in RPMI 1640 supplemented with 10% FCS and 40 ng/ml of recombinant human GM-CSF as described previously. For cell proliferation assays, cells were washed in 10% FCS medium twice, resuspended in 10% FCS medium, incubated at 37° C. for 16 hours and then cultured at 37° C. in 10% FCS medium containing various amounts of cytokines, sodium stibogluconate, or PSbT for 3-6 days as indicated. The cell numbers in proliferation assays were determined by an MTT assay or by microscopic cell counting as indicated.

Experiment [2] deals with T1, intracellular Flag-PRL-2 in WM9 cells (Homo sapiens, UniProt Q12974).
T1 construct: expressed in transfected cells; host or cells: WM9 human melanoma cells
Put plainly: PTPase activity of anti-Flag immunocomplexes from WM9 transfectants. The format is cell-based. As to conditions: treated 5 minutes. The protocol: FIG. 6C. Sodium stibogluconate inactivates intracellular PRL-2 in WM9 human melanoma cells. A. Relative PTPase activities of anti-Flag immunocomplexes from WM9 cells transfected with the control vector (V) or Flag-PRL-2 expression construct and then treated with different amounts of sodium stibogluconate for 5 minutes B. Relative amounts of Flag-PRL-2 in the immunocomplexes as determined by SDS-PAGE/Western blotting. C. Relative PTPase activities of anti-MKP1 immunocomplexes from WM9 cells treated with different amounts of sodium stibogluconate for 5 minutes. Relative amounts of MKP1 in the immunocomplexes as determined by SDS-PAGE/Western blotting.
Flag-PRL-2 protein was detected in anti-Flag immunocomplexes from WM9 cells tranfected with an expression construct of Flag-PRL-2 but not in those from vector transfectants expected.

The test system of experiment [3] is NB4 cells. Put plainly: Differentiation, proliferation and cell cycle of AML cell line. The experiment is classed as cell-based, human. The method, then:
Cell lines, cell culture, and cell proliferation assay. The NB4 cell line was a gift from Dr. Dan Lindner of CCF. HL60 and U937 cell lines were purchased from ATCC. These human AML cell lines were maintained in RPMI 1640 medium supplemented with 10% fetal calf serum (FCS). For cell proliferation assays, cells were cultured at 37° C. in 10% FCS medium containing various amounts of sodium stibogluconate for 6 days. The cell numbers in the cultures were determined by an MTT assay as described previously.
Differentiation of AML cell lines was assessed by their ability to produce superoxide as measured by reduction of NBT to formazan and by analysis of expression of CD11b surface marker by flow cytometry. For NBT reduction, each cell suspension was mixed with an equal volume of solution containing 1 mg/ml of NBT (Sigma) and 2.5 μg/ml of TPA for 30 minutes at 37° C. After incubation, cells containing the purple formazan deposits and cells devoid of NBT-reducing activity (white cells) in each sample were determined by counting 200 cells under microscope. We expressed the data as percentage of the following ratio: purple cells/purple+white cells. For analysis of cell surface antigens, cells were exposed to phycoerythrin (PE)−conjugated murine anti-human CD11b (DAKO corp, Carpinteria, Calif.). Analysis of fluorescence was performed on a FACScan flow cytometer (Beckton Dickinson, Mountain View, Calif.). The cell cycle was analyzed by flow cytometry after 3 days of culture of NB4 cells in the absence or presence of sodium stibogluconate (250 μg/ml) or ATRA (1 μM). Briefly, the cells were fixed in cold ethanol and incubated for 30 minutes at 4° C. in the dark with a solution of […] propidium iodide, 1 mg/ml RNase and 0.1% NP-40. Analysis was performed immediately after staining using the CELLFIT program (Becton Dickinson, Mountain View, Calif.).

In experiment [4] the test system is Stat1 tyrosine phosphorylation. Put plainly: IFNα-induced Stat1 tyrosine phosphorylation in cancer cell lines. The experiment is classed as cell-based, human. The method, then: Induction of Stat1 tyrosine phosphorylation by IFNα and/or sodium stibogluconate. For induction of Stat1 tyrosine phosphorylation by IFNα in the absence or presence of sodium stibogluconate, cells grown in 10% FCS RPMI 1640 medium at 37° C. were stimulated with IFNα (50 u/ml) for various time points and treated with or without sodium stibogluconate for 5 minutes prior to termination by lysing the cells in cold lysis buffer (1% NP-40; 50 mM Tris, pH 7.4; 100 mM NaCl; 1 mM EDTA, 10% glycerol, 10 mM sodium molybdic acid and 4 mM AEBSF).
Cell lysate preparation, SDS-PAGE, and Western blotting. Cell lysates were prepared by lysing cells in cold lysis buffer for 30 min and cleared by centrifuging at 14,000 rpm at 4° C. for 15 min. For SDS-PAGE, cell lysates were mixed with equal volume of 2×SDS-PAGE sample buffer, heated at 90° C. for 5 min and separated in 10% SDS-PAGE gels. Cellular proteins in SDS-PAGE gels were transferred to nitrocellulose membrane (Schleicher & Schuell), blocked in 5% milk, probed with antibodies and detected by using an enhanced chemiluminescence kit (ECL, Amersham).

For experiment [5], the system named is 5637 cells (Blader carcinoma). Put plainly: Growth inhibition of human tumor cell lines. The experiment is classed as cell-based. As to conditions: SS 12.5 μg/ml, IFNα 1,000 u/ml, alone or combined.
Experiment [6] has as its system Melanomas. As to conditions: melanoma patients; cited from earlier work.

T1 sequence (Q12974 whole entry): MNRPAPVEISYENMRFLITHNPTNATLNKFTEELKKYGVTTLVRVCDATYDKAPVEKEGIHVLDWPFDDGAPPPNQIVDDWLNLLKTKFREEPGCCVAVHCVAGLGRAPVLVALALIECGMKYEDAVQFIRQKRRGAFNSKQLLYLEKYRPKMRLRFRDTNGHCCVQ

For the molecule `O.O.O.O.O.O.O.O.O.O=C([O-])[C@@H]1[O][Sb]2([O-])([O][Sb]34([OH])[O][C@H]([C@H](O)CO)[C@H]([O]3)[C@H](C(=O)[O-])[O]4)[O][C@H]([C@H](O)CO)[C@@H]1[O]2.[Na+].[Na+].[Na+]` [sodium stibogluconate], the “IL-3-induced Baf3 growth” value in experiment [1] is “suppressed”. The “PTPase activity of Flag-PRL-2 immunocomplexes from treated WM9 transfectants” value in experiment [2] is reported as “only low levels of PTPase activity”. Moreover, the “proliferation of NB4 cells” value in experiment [3] (12.5-400 μg/ml, 6 days) is recorded as “markedly inhibited”. The “cell cycle arrest (DNA content analysis)” value in experiment [3] (3 days, sodium stibogluconate 250 μg/ml, ATRA 1 μM) is “growth arrest at S phase”. In addition, the “expression levels of PML/RARα chimeric protein” value in experiment [3] (NB4 cells) was “no detectable effect”. Besides, the “NB4 cell differentiation (NBT positive cells)” value in experiment [3] (dose- and time-dependent) was “induced”. The “IFNα-induced Stat1 tyrosine phosphorylation relative to control” value in experiment [4] (DR cells, 10 μg/ml, 30 min post-stimulation) is on record as “approximately two”. Moreover, the “Stat1 tyrosine phosphorylation by the drug itself” value in experiment [4] (DR cells, absence of IFNα) is “failed to induced”. For the same molecule, the “IFNα-induced Stat1 tyrosine phosphorylation” value in experiment [4] (DU145 cells, 5 hours post-stimulation) is reported as “Enhanced”; in experiment [4] (WM9 cells, 5 hours post-stimulation), “Enhanced”; in experiment [4] (WM35 cells), “failed to enhance”; in experiment [4] (WiT49-N1 cells), “failed to enhance”.
As for IFNα, in experiment [5], the “% of growth inhibition by day 6 (±s.d.)” value is 28 (17) %. The response rates in experiment [6] was 15%.
